Series [1] has as its system MCF-7-TYR. Conditions: cited from earlier work.
Series [2] is described as follows: Dynamic PET imaging in normal rat brain. The series is classed as in vivo. How it is done: (§1) Small animal PET/CT imaging was performed on a Siemens Inveon small-animal multimodality PET/CT system (Preclinical Solutions; Siemens Healthcare Molecular Imaging, Knoxville, Tenn.). For each rat, ^18F-P3BZA (7.4 MBq, 200 μCi) was administrated through tail vein.
To assess the in vivo kinetics of ^18F-P3BZA in normal rat brain, dynamic PET imaging (10×1 minute, 10×2 minute, 2×5 minute, 3×10 minute; total of 25 frames) was initiated immediately after administration of the probe and terminated 70 minute later on normal rats (n=4).
CT scan (632 slices at 206 μm) was performed immediately after PET imaging for both photon attenuation correction and image co-registration with PET image data for anatomical information. PET Images were reconstructed with a 2-dimensional ordered-subsets expectation maximization algorithm (OSEM 2D). ROIs were drawn in bilateral striatum using the Inveon Research Workspace software. The average radioactivity concentration in the ROIs was obtained from the mean pixel values within the ROIs volume. […] The results were then divided by the injected dose to obtain an image ROI-derived % ID/g, and the TAC was then calculated and obtained.

Series [3] relates to B16F10. Particulars: cited from earlier work.
Series [4] has as its system gelatin microcarrier-bound pRPE cells. Nature of the series: Ex vivo autoradiography of rat brain sections. Type of series: in vivo. Conditions: after static PET/CT. The source says:
The sacrificed rat brains were removed and embedded in optimum cutting temperature (O.C.T.) compound (Tissue-Tek, Sakura, USA). Subsequently, thick axial blocks (12 μm) were cut using a cryostat microtome HM500 (Microm, HM 500 M, Heidelberg, Germany). The sections were mounted on microscope slides (Fisherbrand Superfrost Plus microscope slides, Fisherbrand Superfrost Plus Microscope Slides, Vernon Hills, Ill., USA). The representative coronal sections through the striatum (including visible injection sites) were used for autoradiography immediately or preserved in −80° C. for other postmortem analysis.
After static PET/CT imaging, frozen brain sections were prepared immediately for autoradiography. The sections were air-dried for 10 minute, and then exposed to a radioactivity sensitive storage phosphor screen (Perkin-Elmer, USA) for 24 h at 4° C. The imaging plates were analyzed using a Typhoon 9410 variable mode imager (Amersham Biosciences, Salt Lake City, Utah, USA), and the image data were visualized and processed by Image J (image processing and analysis software in Java).

Series [5] relates to gelatin microcarrier-bound pRPE cells (pRPE-GMs). Nature of the series: Static PET/CT of intrastriatal implanted pRPE-GMs, 2 days after implantation. The series is classed as in vivo, rat. How it is done:
(§2) Female Wistar rats (Charles Rivers Laboratory, Wilmington, Mass., USA) weighing 176-200 g were used in this study. All animal work was conducted in accordance with the Administrative Panel on Laboratory Animal Care at Stanford University. The implantation procedure was performed following the surgical procedures described in a previous report^36. Animals were anesthetized using isofluorane and were implanted at left striatum with RPE-GMs using the following (flat-skull) coordinates: anterior posterior (AP) −0.4; medial lateral (ML) ±3.5; dorsal ventral (DV) −5.0. The control GMs-alone were implanted on the contralateral side of the striatum and performed using the same procedure. Before the implantation procedure, solutions contained RPE cells (melanotic pRPE or amelanotic ARPE-19, 12,000˜15,000 cells in 10 μL) were drawn into a sterile 50 μL Hamilton syringe (Hamilton Company, Reno, Nev.).
(§3) Small animal PET/CT imaging was performed on a Siemens Inveon small-animal multimodality PET/CT system (Preclinical Solutions; Siemens Healthcare Molecular Imaging, Knoxville, Tenn.). For each rat, ^18F-P3BZA (7.4 MBq, 200 μCi) was administrated through tail vein. […]

Series [6] concerns MCF-7 cells. Conditions: cited from earlier work.
For series [7], the system named is pRPE cells. The experiment in a line: In vitro cell uptake of ^18F-P3BZA in pRPE cells. The series is classed as cell-based. Conditions: for uptake of ^18F-P3BZA in pRPE cells: without L-tyrosine. How it is done:
(§4) pRPE (generation 3, 5×10^5) or control ARPE-19 cells were plated in a 12-well plate pretreated with or without L-tyrosine (2 mM) for 24 h. They were incubated with 74 kBq (2 μCi)/well of ^18F-P3BZA at 37° C. for 15, 30, 60, and 120 minute. The cells were washed three times with chilled PBS and lysed with 500 μL of 0.1 M NaOH. The cell lysates were then collected and the radioactivity of the lysates was measured with a γ counter (Perkin-Elmer, MA, USA). The cell uptake was expressed as the percentage of total applied radioactivity. All experiments were performed with triplicate samples. Similarly, uptake of ^18F-P3BZA at 30 minute incubation was determined in pRPE cells at different passages (pRPE-P3, pRPE-P5 and pRPE-P8) and control ARPE19 cells, with or without L-tyrosine pretreatment.

In series [8] the test system is ARPE-19 cells. Nature of the series: In vitro cell uptake of ^18F-P3BZA in control ARPE-19 cells. The series is classed as cell-based, human. How it is done: as §4
Series [9] deals with pRPE-GMs. The experiment in a line: Longitudinal PET/CT after implantation of pRPE-GMs. The series is classed as in vivo, rat. How it is done: as §1
To evaluate the potential of ^18F-P3BZA for monitoring the survival and function of RPE cells implanted, longitudinal PET/CT scans were acquired at day 2, 9 and 16 after cell implantation of pRPE-GMs in the left and GMs as control in right striatum in normal rats (n=12). PET/CT imaging started at 1 h after tail vein injection of ^18F-P3BZA Immediately after PET/CT scan at each time point (day 2, 9 and 16), four rats were sacrificed and the brain slices were prepared for immunohistochemistry and Fontana-Masson staining.

Series [10] has as its system gelatin microcarrier-bound ARPE-19 cells (ARPE-19-GMs). Nature of the series: Static PET/CT of intrastriatal implanted ARPE-19-GMs, 2 days after implantation. The series is classed as in vivo, rat. How it is done:
as §2, §3

Series [11] has as its system implantation site (striatum). Particulars: cited from earlier work.
Series [12] has as its system pRPE cells. Nature of the series: Melanin quantification analysis in pRPE cells. The series is classed as cell-based, porcine. Conditions: 2 mM L-tyrosine pre-treatment; from 14.34±0.48 untreated. How it is done: In vitro measurement of melanin content was performed for pRPE and ARPE-19 cells in parallel with the ^18F-P3BZA cell uptake assay according to methods reported previously with slight modifications^35. The cells were harvested after pretreatment with or without 2 mM L-tyrosine for 24 h and washed with PBS, then they were incubated overnight in 500 μL of 1 N NaOH at room temperature. The solution was pipetted repeatedly to homogenize the extracts. The concentration of total protein was determined using a microBCA protein assay kit (Pierce Biotechnology) and then the concentration of samples was adjusted to 0.4 μg/μL. Extracts (100 μL) were added into 96-well plates in triplicate. The relative melanin content of samples was determined by measuring their absorbance at 405 nm using a plate reader (TECAN, Research Triangle Park, N.C.). Results were expressed as absorbance of 405 nm per mg protein (A 405 nm/mg protein).

The mark [13] stands for this setting: after implantation of the RPE cells.
Setting [14] is: before implantation of the RPE cells.

Consider 4 compounds from US20150023877A1, “METHODS OF PARKINSONS DISEASE DIAGNOSIS AND MONITORING TREATMENT” (The Board of Trustees of the Leland Stanford Junior …, priority 2013, published 2015).

Where “and” joins values, the source holds several entries; their conditions need not be identical. Equal entries are not always repeated. Where two headings read alike, the source gives them in different places.

Regarding `CCN(CC)CCNC(=O)c1ccc([18F])cn1` [^18F-P3BZA, N-(2-(diethylamino)ethyl)-^18F-5-fluoropicolinamide], the cell uptake in series [1] (0.5 h incubation) is listed as 5.57±0.31%; in [1] (1 h incubation), 7.14±0.18%; in [3] (0.5 h incubation), 6.85±0.08%; in [3] (1 h incubation), 8.55±0.24%; in series [6] (0.5 h incubation) it was 0.25±0.05%; in series [6] (1 h incubation), 0.32±0.07%. Moreover, the “uptake in rat brain” value came to 7.61±0.30 % ID/g in [2] (2 min after injection (peak)), 3.54±0.21 % ID/g in series [2] (28 min after injection) and 1.04±0.37 % ID/g in [2] (60 min after injection). For the same compound, in series [2] (PET images, normal rat), the blood-brain barrier passage entry is on record as “could rapidly cross the blood-brain barrier”. In [4], the “autoradiography signal of pRPE-GMs transplant site vs ARPE-19-GMs or GMs alone sites” value was “significantly higher”. Also, the “pRPE-GMs to adjacent normal striatum uptake ratio” value in series [5] came to 3.19±0.53. Also, the “pRPE-GMs to control gelatin microcarriers uptake ratio” value in [5] came out at 3.05±0.57. Besides, the “uptake of ^18F-P3BZA in L-tyrosine treated pRPE cells” value in series [7] (2 mM L-tyrosine pre-treatment, 30 minute incubation) turned out to be 39.07±1.65%. Also, the “uptake of ^18F-P3BZA in pRPE cells” value in [7] (60 minutes incubation) is 9.09%±0.31 % of applied activity; in series [7] (120 minutes incubation) it was 8.61%±0.47 % of applied activity; in series [7] (pRPE passage 3, 30 minutes incubation) it was 10.72±0.38 % of applied activity and 10.72%±0.38 % of applied activity and 10.71%±0.38 % of applied activity. Besides, the “fold uptake in passage 3 pRPE cells vs control amelanotic ARPE-19 cells” value in series [7] (in vitro) stood at 9 fold. Moreover, in series [7] (multiple time points, FIG. 2A), the “increase in uptake in pRPE cells after tyrosine treatment vs nontreatment groups” value was “three- to fourfold higher”. Further, the “increase of uptake after tyrosine treatment” value in series [7] (pRPE-P3) turned out to be 48.8%; in [7] (pRPE-P5), 37.8%; in series [7] (pRPE-P8), 31.9%. The “decreasing rate of cell uptake per passage” value in [7] (pRPE-P3, P5, P8) was −1.45 % of applied activity per passage. In [7] (passage 5, 30 minute incubation), the “uptake of ^18F-P3BZA in pRPE-P5 cells” value is given as 6.25%±0.59 % of applied activity. Besides, the “uptake of ^18F-P3BZA in pRPE-P8 cells” value in [7] (passage 8, 30 minute incubation) is 3.29%±0.15 % of applied activity. In series [8] (15, 30, 60, 120 minutes), the “uptake in control ARPE-19 cells at each time point” value is “remained low”. Also, the “uptake of ^18F-P3BZA in control ARPE-19 cells” value in series [8] (30 minute incubation) is on record as 1.31%±0.15 % of applied activity. The “uptake in ARPE-19 cells before and after tyrosine treatment” value in series [8] (with vs without L-tyrosine) is listed as “no difference”. Further, the “uptake in pRPE-GMs” value worked out at 3.39±0.18 % ID/g in [9] (2 days post-implantation), 2.49±0.41 % ID/g in [9] (9 days post-implantation) and 1.20±0.13 % ID/g in series [9] (16 days post-implantation). For the same compound, the “ARPE-19-GMs to gelatin microcarriers uptake ratio” value in series [10] is recorded as 1.21±0.36.

With `N[C@@H](Cc1cc(O)c(O)cc1[18F])C(=O)O` [^18F-fluoro-L-DOPA], the figures for the “implantation site (striatum) to cortex uptake ratio” value in series [11] (setting [13]) and in [11] (setting [14]) were 1.48±0.07 and 1.35±0.10, respectively.

On to `CCN1CCC[C@H]1CNC(=O)c1c(O)c(Cl)cc(Cl)c1O[11CH3]` (racemic) [^11C-raclopride], for which the “implantation site (striatum) to cortex uptake ratio” value in series [11] (setting [13]) is 2.44±0.67; in series [11] (setting [14]), 2.41±0.74.

For the compound `N[C@@H](Cc1ccc(O)cc1)C(=O)O` [L-tyrosine], the “melanin content in pRPE cells (P3)” value in series [12] worked out at 21.34±1.73 A 405 per mg protein.
